Tests used:
[1] = tested on: retinal ganglion cells (RGCs); test: Optic nerve axotomy model of glaucoma: RGC survival in vivo; design: species or system Long-Evans rats
From the text: As a model for studying treatment of glaucoma, damaged (axotomized) retinal ganglion cells were employed. Specifically, transection of the optic nerve close to the cell body causes apoptotic death of retinal ganglion cells (RGCs), similar to that found in glaucoma. […] Three days later, the left optic nerve was intraorbitally transected 1 mm from the globe. One day after axotomy, no remarkable change in the fluorescence pattern of RGCs was seen compared to that of controls. RGC density, as assessed by the number of fluorescently-labeled cells, began to decline between 4 and 7 days post axotomy. By 14 days, a substantial number of fluorescently-labeled RGCs appeared to have been lost. Morphologically, in whole-mounted retinas stained with cresyl violet, ganglion cell layer (GCL) of unlesioned control retinas manifest no apoptotic profiles or pyknotic nuclei. In contrast, by 10 days after axotomy, multiple degenerating cell bodies with pyknotic nuclei were apparent in the GCL, and the cell density in this layer appeared to be greatly diminished. When hydroxystilbamidine fluorescence in the GCL was quantified, in unlesioned control retinas the mean RGC density was 2533±104 cells/mm^2 (mean±SD). Within 14 days of axotomy, the mean RGC density decreased to 348±107 (14% of control).
One day after axotomy, activated (di-phosphorylated) p38 was visualized by immunocytochemistry in the RGC layer, but not in control retinas. By Western blotting, phosphorylated p38 was first detected 12 hours after axotomy and reached a maximum at 24 hours before decreasing. SB 203580 was administered intravitreally at the time of axotomy, and repeated at 5 days and 10 days.
Retrograde labeling of retinal ganglion cells. Adult male Long-Evans rats weighing 200 to 250 g were obtained from a local breeder and, for all experimental manipulations, were anesthetized with 1-2% isoflurane and 70% N2O. RGCs were retrogradely labeled with hydroxystilbamidine (Molecular Probes, Eugene, Oreg., also known as Fluoro-Gold™) to allow accurate counting of cell bodies as described in Vorwerk et al., Invest. Ophthalmol. Vis. Sci. 40:813-816. Rats were anesthetized and placed in a small stereotactic instrument. The skull was exposed and kept dry. The bregma was identified and marked, and a small window was drilled above the right hemisphere, leaving the dura intact.
Axotomy. Optic nerve axotomy was performed on the left eye 4 days after retrograde labeling. After incision of the dorsolateral conjunctiva, the lateral extraocular muscle was transected, and the optic nerve was exposed under a stereoscopic microscope. The optic nerve was then transected at a distance of about 1 mm from the eye bulb. During the operation, care was taken to avoid damage to the retinal blood supply.
Drug application. Intravitreal injections were carried out using a 33-gauge needle attached to a 25 μl syringe following pupil dilation with 1% atropine sulfate. The tip of the needle was inserted through the dorsal limbus of the eye under stereomicroscopic visualization. Injections were completed over a period of 1 min. Intravitreal injections of SB 203580 (Calbiochem, San Diego, Calif.), MK801 (Research Biochemicals International, Natick, Mass.) or control solutions (as an equal volume of saline diluent) were performed on operated eyes immediately after axotomy, and repeated 5 and 10 days post axotomy.
Quantification of axotomized RGC survival and histology. […]

cultured RGCs = test: NMDA-induced apoptosis in cultured RGCs; type: cell-based, Long-Evans rats; conditions: 1 μM; 300 μM NMDA/5 μM glycine for 18 hr
Protocol: Retinal cell cultures. Retinal cells were prepared from 6-10 day old Long-Evans rats as described in Leifer et al., Science 224:303-306 (1984). Briefly, following dissociation in papain, retinal cells were plated on poly-L-lysine-coated glass coverslips in Eagle's minimum essential medium. RGCs were identified by immunocytochemical staining using an anti-Thy-1 antibody (2G12), which is specific among rat retinal cells for the ganglion cells.
Assessment of NMDA-induced apoptosis in cultured RGCs. To induce predominantly apoptosis (See Bonfoco et al., Proc. Natl. Acad. Sci. USA 92:7162-7166 (1995); Dreyer et al., Neuroreport 6:942-944 (1995)), retinal cell cultures were exposed to 300 μM NMDA/5 μM glycine for 18 hr in high calcium (3 mM) medium. For specific labeling of RGCs, the cultures were incubated with anti-Thy-1 antibody for 1 hr. Following 3 washes with PBS, cells were incubated in goat-anti-mouse-IgG-FITC for 1 hr. For assessment of apoptosis, retinal cells were fixed, permeabilized and stained with 20 μg/ml propidium iodide for 5 min, as described in Ankarcrona et al., Neuron 15:961-973 (1995). Briefly, coverslips containing the cells were washed once with PBS and permeabilized with 85% methanol for 10 min. […] Apoptotic nuclei were scored in cells that were also stained by anti-Thy-1, and expressed as a fraction of total RGCs.

For C[S+]([O-])c1ccc(-c2nc(-c3ccc(F)cc3)c(-c3ccncc3)[nH]2)cc1 (centres unmarked) [SB 203580, 4-(4-fluorophenyl)-2-(4-methylsulfinylphenyl)-5-(4-pyridyl)-1H-imidazole], the “neuroprotection of RGCs” value ([1]; 0.2 nmol intravitreal (corresponding to 1.6 μM), 14 days post axotomy) was “significant degree of neuroprotection”, the “number of surviving RGCs” value ([1]; 10 nmol intravitreal, 14 days post axotomy, axotomy alone 348, control 2,511) was 1,347 cells/mm^2 and the “number of surviving RGCs” value ([1]; 14 days post axotomy, intravitreal at axotomy, 5 and 10 days, dose series) was “increased the number of surviving RGCs in a dose-dependent manner”. The “RGC protection on addition to MK801, compared with MK801 alone” value ([1]; SB 203580 added to MK801, intravitreal, axotomy) was “did not offer further protection” and the “survival of RGCs in the face of NMDA exposure” value (cultured RGCs) was “significantly increased”.

— patent US20030078274A1, “Method of reducing neuronal injury or apoptosis” (priority 1999, published 2003)
